Key:
[1] = Formation of 1,5-cz-[M(Lig)] from Lig and M^III ions (metal dependent click-zip) (Charts 4, 5); type: physicochemical; settings: MOPS/NaOH buffer pH 7.0; for conversion to 1,5-cz-[M(Lig)], Y^III / conversion to 1,5-cz-[M(Lig)], Sc^III: TD728, TD827 in 50% i-PrOH; for conversion to 1,5-cz-[M(Lig)], Y^III: TD714 sum of two diastereoisomers
[2] = Formation of 1,5-cz-[Ln(Lig)] from Lig and Ln^III ions (metal dependent click-zip), MOPS/NaOH buffer pH 7.0, analytical HPLC (Charts 1, 2); settings: MOPS/NaOH buffer pH 7.0

SMILES: C#Cc1cccc(CN2CCN(CC(=O)O)CCN(Cc3cc(C(=O)OC(C)(C)C)cc(CN=[N+]=[N-])n3)CCN(CC(=O)O)CC2)n1 [TD1160]
- conversion to 1,5-cz-[Ln(Lig)] with hydrolysed group in the side chain, Y^III ([1]; 1 week at 80° C.): 90%
- conversion to 1,5-cz-[M(Lig)], Y^III ([1]; 1 week at 80° C.): 0%
- conversion to 1,5-cz-[Ln(Lig)] with hydrolysed group in the side chain, Y^III ([1]; 1 hour at 80° C.): 17%
- conversion to 1,5-cz-[M(Lig)], Y^III ([1]; 1 hour at 80° C.): 1%
- conversion to 1,5-cz-[Ln(Lig)] with hydrolysed group in the side chain, Lu^III ([2]; after 1 week at 80° C.): 91%
- conversion to 1,5-cz-[Ln(Lig)], Lu^III ([2]; after 1 week at 80° C.): 0%
- conversion to 1,5-cz-[Ln(Lig)] with hydrolysed group in the side chain, Lu^III ([2]; after 1 hour at 80° C.): 61%
- conversion to 1,5-cz-[Ln(Lig)], Lu^III ([2]; after 1 hour at 80° C.): 3%
- conversion to 1,5-cz-[Ln(Lig)] with hydrolysed group in the side chain, Sm^III ([2]; after 1 week at 80° C.): 85%
- conversion to 1,5-cz-[Ln(Lig)], Sm^III ([2]; after 1 week at 80° C.): 0%
- conversion to 1,5-cz-[Ln(Lig)] with hydrolysed group in the side chain, Sm^III ([2]; after 1 hour at 80° C.): 3%
- conversion to 1,5-cz-[Ln(Lig)], Sm^III ([2]; after 1 hour at 80° C.): 0%
- conversion to 1,5-cz-[Ln(Lig)] with hydrolysed group in the side chain, Tb^III ([2]; after 1 week at 80° C.): 89%
- conversion to 1,5-cz-[Ln(Lig)], Tb^III ([2]; after 1 week at 80° C.): 0%
- conversion to 1,5-cz-[Ln(Lig)] with hydrolysed group in the side chain, Tb^III ([2]; after 1 hour at 80° C.): 9%
- conversion to 1,5-cz-[Ln(Lig)], Tb^III ([2]; after 1 hour at 80° C.): 0%

SMILES: C#Cc1cccc(CN2CCN(CC(=O)O)CCN(Cc3cc(N(C)C)cc(CN=[N+]=[N-])n3)CCN(CC(=O)O)CC2)n1 [TD1176]
- conversion to 1,5-cz-[M(Lig)], Sc^III ([1]; 1 week at 80° C.): 31%
- conversion to 1,5-cz-[M(Lig)], Y^III ([1]; 1 week at 80° C.): 95%
- conversion to 1,5-cz-[M(Lig)], Sc^III ([1]; 1 hour at 80° C.): 6%
- conversion to 1,5-cz-[M(Lig)], Y^III ([1]; 1 hour at 80° C.): 30%
- conversion to 1,5-cz-[Ln(Lig)], Ce^III ([2]; after 1 week at 80° C.): 60%
- conversion to 1,5-cz-[Ln(Lig)], Ce^III ([2]; after 1 hour at 80° C.): 0%
- conversion to 1,5-cz-[Ln(Lig)], Dy^III ([2]; after 1 week at 80° C.): 96%
- conversion to 1,5-cz-[Ln(Lig)], Dy^III ([2]; after 1 hour at 80° C.): 20%
- conversion to 1,5-cz-[Ln(Lig)], Er^III ([2]; after 1 week at 80° C.): 96%
- conversion to 1,5-cz-[Ln(Lig)], Er^III ([2]; after 1 hour at 80° C.): 46%
- conversion to 1,5-cz-[Ln(Lig)], Eu^III ([2]; after 1 week at 80° C.): 93%
- conversion to 1,5-cz-[Ln(Lig)], Eu^III ([2]; after 1 hour at 80° C.): 6%
- conversion to 1,5-cz-[Ln(Lig)], Gd^III ([2]; after 1 week at 80° C.): 91%
- conversion to 1,5-cz-[Ln(Lig)], Gd^III ([2]; after 1 hour at 80° C.): 7%
- conversion to 1,5-cz-[Ln(Lig)], Ho^III ([2]; after 1 week at 80° C.): 96%
- conversion to 1,5-cz-[Ln(Lig)], Ho^III ([2]; after 1 hour at 80° C.): 31%
- conversion to 1,5-cz-[Ln(Lig)], La^III ([2]; after 1 week at 80° C.): 73%
- conversion to 1,5-cz-[Ln(Lig)], La^III ([2]; after 1 hour at 80° C.): 0%
- conversion to 1,5-cz-[Ln(Lig)], Lu^III ([2]; after 1 week at 80° C.): 96%
- conversion to 1,5-cz-[Ln(Lig)], Lu^III ([2]; after 1 hour at 80° C.): 85%
- conversion to 1,5-cz-[Ln(Lig)], Nd^III ([2]; after 1 week at 80° C.): 85%
- conversion to 1,5-cz-[Ln(Lig)], Nd^III ([2]; after 1 hour at 80° C.): 2%
- conversion to 1,5-cz-[Ln(Lig)], Pr^III ([2]; after 1 week at 80° C.): 82%
- conversion to 1,5-cz-[Ln(Lig)], Pr^III ([2]; after 1 hour at 80° C.): 1%
- conversion to 1,5-cz-[Ln(Lig)], Sm^III ([2]; after 1 week at 80° C.): 92%
- conversion to 1,5-cz-[Ln(Lig)], Sm^III ([2]; after 1 hour at 80° C.): 5%
- conversion to 1,5-cz-[Ln(Lig)], Tb^III ([2]; after 1 week at 80° C.): 94%
- conversion to 1,5-cz-[Ln(Lig)], Tb^III ([2]; after 1 hour at 80° C.): 14%
- conversion to 1,5-cz-[Ln(Lig)], Tm^III ([2]; after 1 week at 80° C.): 96%
- conversion to 1,5-cz-[Ln(Lig)], Tm^III ([2]; after 1 hour at 80° C.): 63%
- conversion to 1,5-cz-[Ln(Lig)], Yb^III ([2]; after 1 week at 80° C.): 97%
- conversion to 1,5-cz-[Ln(Lig)], Yb^III ([2]; after 1 hour at 80° C.): 75%

Reference: patent US20250147039A1, “Compounds for complexation of rare earth elements and/or s-, p-, d- block metals, their coordination compounds, peptide conjugates, method of their preparation and use thereof” (USTAV ORGANICKE CHEMIE A BIOCHEMIE AV CR V.V.I., priority 2021, published 2025)
